# In ChEMBL document CHEMBL5137013 (Eur J Med Chem, 2022):
# The source made the active and inactive calls. The rule behind the calls is not given here.
# Tests used:
# [1] = Resistance index, ratio of IC50 for human MCF7/TxR cells to IC50 for human MCF7 cells; format: functional
# HT-29 [2] = experiment: Induction of apoptosis in human HT-29 cells assessed as up regulation of Bcl-2 expression at 25 to 100 nM measured after 24 hrs by Western blot analysis; format: functional, cell-based; details: dose 25-100 nM
# HT-29 [3] = experiment: Inhibition of colony formation in human HT-29 cells at 100 nM measured after 24 hrs by crystal violet staining based assay; format: functional
# Tubulin (Homo sapiens) [4] = biological target: T1, Tubulin (Homo sapiens) (UniProt P68371+Q9H4B7+P0DPH7+P68366+Q13509+Q71U36+P04350+Q3ZCM7+P07437+P68363+Q9BQE3+Q6PEY2+Q13885+Q9BVA1+Q9BUF5); experiment: Inhibition of tubulin polymerization in human HT-29 cells assessed as up regulation of acetylated-alpha-tubulin expression at 25 to 100 nM measured after 24 hrs by Western blot analysis; format: cell-based; details: dose 25-100 nM
# HT-29 [5] = experiment: Induction of mitochondrial dysfunction in human HT-29 cells assessed as reduction in red fluorescence intensity measured after 24 hrs by JC-1 staining based JC-1 dye based confocal laser scanning microscopy; format: functional, cell-based; details: dose 25-100 nM, DDE = dose-dependent effect
# HT-29 [6] = experiment: Induction of apoptosis in human HT-29 cells at 25 to 100 nM measured after 24 hrs by Annexin V-FITC/propidium iodide staining based flow cytometry; format: functional, cell-based; details: dose 25-100 nM
# HT-29 [7] = experiment: Cell cycle arrest in human HT-29 cells assessed as effect on cyclin B1 expression at 25 to 100 nM measured after 24 hrs by Western blot analysis; format: functional, cell-based; details: dose 25-100 nM
# HT-29 [8] = experiment: Induction of apoptosis in human HT-29 cells assessed as down regulation of phosphorylated histone H3 expression at 25 to 100 nM measured after 24 hrs by Western blot analysis; format: functional, cell-based; details: dose 25-100 nM
# HT-29 [9] = experiment: Cell cycle arrest in human HT-29 cells assessed as effect on cdc25 expression at 25 to 100 nM measured after 24 hrs by Western blot analysis; format: functional, cell-based; details: dose 25-100 nM
# HT-29 [10] = experiment: Antitumor activity against human HT-29 cells xenografted in ip dosed BALB/c nude mouse assessed as tumor growth inhibition administered at 2 days interval for 3 weeks; format: functional, organism-based; details: DDE = dose-dependent effect
# [11] = Cytotoxicity against human MCF7/TxR cells assessed as reduction in cell viability measured after 24 hrs by MTT assay; format: functional, cell-based
# HT-29 [12] = experiment: Antitumor activity against human HT-29 cells xenografted in BALB/c nude mouse assessed as reduction in tumor weight at 10 mg/kg, ip administered as 2 days interval for 3 weeks and measured 3 weeks post-initial dosing relative to control; format: functional; set-up: scale not given: the % may be the effect or the level left
# MDA-MB-231 = experiment: Cytotoxicity against human MDA-MB-231 cells assessed as reduction in cell viability measured after 24 hrs by MTT assay; format: functional, cell-based; details: MDA-MB-231, 24 h
# HT-29 [13] = experiment: Cell cycle arrest in human HT-29 cells assessed as increase in cell accumulation at G2/M phase measured after 24 hrs by propidium iodide staining based flow cytometry; format: functional; details: dose 12.5-100 nM, DDE = dose-dependent effect
# Tubulin (Homo sapiens) [14] = biological target: T1, Tubulin (Homo sapiens); experiment: Inhibition of tubulin polymerization in human HT-29 cells assessed as up regulation of detyrosinated-alpha-tubulin expression at 25 to 100 nM measured after 24 hrs by Western blot analysis; format: cell-based; details: dose 25-100 nM
# [15] = Toxicity in human HT-29 cells xenografted BALB/c nude mouse assessed as body weight loss at 5 to 10 mg/kg, ip administered as 2 days interval for 3 weeks and measured 3 times a week during compound dosing; format: organism-based; details: in vivo, 504 h, dose 5-10 mg/kg
smiles,measurement,setting,value
COC(=O)c1cc2c(cc1Nc1cc(OC)c(OC)c(OC)c1)OCCO2,Ratio IC50,[1],1.3
same,Activity,HT-29 [2],Active
same,inhibition at 0.1 µM,HT-29 [3],100%
same,inhibition,Tubulin (Homo sapiens) [4],Active
same,Activity,HT-29 [5],Dde
same,Activity,HT-29 [6],Active
same,Activity,HT-29 [7],Active
same,Activity,HT-29 [8],Active
same,Activity,HT-29 [9],Active
same,TGI,HT-29 [10],Dde
same,IC50,[11],180 nM
same,Activity,HT-29 [12],75.5%
same,IC50,MDA-MB-231,100 nM
same,Activity,HT-29 [13],Dde
same,inhibition,Tubulin (Homo sapiens) [14],Active
same,Activity,[15],Non-Toxic
